According to US20180021257A1, “WATER-SOLUBLE PHARMACEUTICAL COMPOSITION COMPRISING AT LEAST ONE THERAPEUTICALLY ACTIVE SUBSTANCE AND AT LEAST ONE SUBSTANCE CAPABLE OF FORMING MICELLES” (CONSEJO NACIONAL DE INVESTIGACIONES CIENTIFICAS Y TECNICAS …, priority 2015, published 2018):
Converted amounts (≈) assume the structure as drawn. “And” between values parts separate entries of the source, which are not always exact repeats. Equal entries are not always repeated. Where two headings read alike, the source gives them in different places. Blank lines part the entries; values can stand above or below the molecule they belong to.

Experiments:
[1] = cited from earlier work; for Micelles stable (Daptomycin: and biologically active): at 25° C.
[2] = in vivo; cited from earlier work
[3] = cited from earlier work
[4] = Particle size of micelles by dynamic light scattering (DLS); format: physicochemical; conditions: for Diameter of micelles: comparative study, dynamic light scattering
Excerpt: Determining Particle Size of Teico, Teico-Ptx and Teico-PTX-Alb Micelles by Dynamic Light Scattering (DLS)

[5] = cited from earlier work; remark: listed apart in the source
[6] = Loading of Ptx into antibiotic micelles, quantified by HPLC; format: physicochemical; conditions: for Maximum load / loading capacity: Ptx or Dtx in micelles; for Ptx loaded (%): 30 minutes, Teicoplanina 100 mg/ml, Ptx added 5 mg; for Ptx in Teicoplanin micelles: Teicoplanin 200 mg/ml
Method: Samples with 400 mg of teicoplanin were dissolved in 2 ml of distilled water at pH 5.5 or in 2 ml of phosphate buffer solution of 20 mM at pH 6, with gentle stirring in order to obtain full dissolution. The solution was allowed to stand for at least 4 hours at 4° C. A 0.5 ml aliquot was incubated with 25 μl of DMSO having increasing amounts of Paclitaxel (Ptx) in order to reach the following final concentrations: 1 mg/ml, 5 mg/ml, 10 mg/ml and 20 mg/ml.
The solutions were incubated at 25° C. for at least 4 hours and then centrifuged at 15,000×g for 10 minutes to remove the potential insoluble Ptx that had not encapsulated in teicoplanin micelles. Finally, in order to remove the remaining DMSO, the samples were dialyzed with a phosphate buffer solution of 20 mM at pH 6 for 12 hours. The quantification of Ptx introduced into teicoplanin micelles was carried out by using HPLC.
Ptx is loaded into teicoplanin micelles at a concentration of 5 mg/ml, according to the description of Example 1, but for 30 minutes at 4° C., 25° C. and 37° C. After incubation, the samples were centrifuged at 15,000×g for 10 minutes and they were also dialyzed in distilled water for 12 hours at 4° C. Finally, the amount of Ptx introduced into the teicoplanin micelle in a soluble way was quantified by HPLC. […] The load in all conditions was higher than 90%.

[7] = Solubility in aqueous medium; format: physicochemical
HEP-2 = experiment: In vitro cytotoxic activity in tumor cell culture (MTT test); format: cell-based; conditions: for Cell Death after 24 Hours of Treatment: HEP-2, MTT
Method: Tumor cells, such as HEP-2, were incubated in MEM medium having fetal bovine serum by 2% (Natocor-Villa Carlos Paz—Cordoba—Argentina) in a CO2 incubator by 5% CO2, at confluence. Different concentrations of the compositions mentioned below were added to the cell culture: […]

[8] = Critical micelle concentration (CMC); format: physicochemical
[9] = Loading of Ptx into antibiotic micelles, quantified by HPLC; format: physicochemical; conditions: Teicoplanin 200 mg/ml; Ptx concentration 2.5 mg/ml
[10] = Dialysis experiments on Teicoplanin micelles; format: physicochemical; conditions: after 48 hours of dialysis
Method: In fact, in dialysis experiments, it was shown a loss of about 25% of molecules of Teicoplanin after 48 hours of dialysis, while for the Teico-Ptx complex is was shown a loss of about 5 to 8%.

[11] = aqueous medium with teicoplanin micelles, aqueous with cosolvent or surfactant or cyclodextrin
[12] = aqueous medium without micelles

Diameter of micelles [4]: 5 nm
Maximum load / loading capacity [6]: 5 mg/mL
Molecule: CCCCCCCCCC(=O)N[C@@H](Cc1c[nH]c2ccccc12)C(=O)N[C@H](CC(N)=O)C(=O)N[C@@H](CC(=O)O)C(=O)N[C@@H]1C(=O)NCC(=O)N[C@@H](CCCN)C(=O)N[C@@H](CC(=O)O)C(=O)N[C@H](C)C(=O)N[C@@H](CC(=O)O)C(=O)NCC(=O)N[C@H](CO)C(=O)N[C@@H]([C@H](C)CC(=O)O)C(=O)N[C@@H](CC(=O)c2ccccc2N)C(=O)O[C@@H]1C [Daptomycin]
Micelles stable and biologically active ([1]; at 4° C.): 48 hours
Micelles stable (Daptomycin: and biologically active) [1]: 12 hours
Half life [2]: 7 to 10 h
Suggested maximum dose ([3]; in vivo): 10 to 12 mg/kg/day
CMC ([5]; pH 4, listed as Dapto micelles): 400 μg/ml and 250 μM
Concentration at which molecule remains soluble ([5]; pH 6.5): 150000 µg/mL

solubility [7, 11]: 10000 µg/mL (≈ 12.4 mM)
solubility [7, 12]: < 1 µg/mL
Molecule: CC(=O)O[C@@]12CO[C@@H]1C[C@H](O)[C@@]1(C)C(=O)[C@H](O)C3=C(C)[C@@H](OC(=O)[C@H](O)[C@@H](NC(=O)OC(C)(C)C)c4ccccc4)C[C@@](O)([C@@H](OC(=O)c4ccccc4)[C@H]21)C3(C)C [Dtx, Docetaxel]

solubility [7, 11]: 10000 µg/mL (≈ 11.7 mM)
solubility [7, 12]: < 1 µg/mL
Molecule: CC(=O)O[C@H]1C(=O)[C@@]2(C)[C@H]([C@H](OC(=O)c3ccccc3)[C@]3(O)C[C@H](OC(=O)[C@H](O)[C@@H](NC(=O)c4ccccc4)c4ccccc4)C(C)=C1C3(C)C)[C@]1(OC(C)=O)CO[C@@H]1C[C@@H]2O [Ptx, Paclitaxel]
Cell Death after 24 Hours of Treatment (HEP-2; Ptx 5 nM): 10%
Cell Death after 24 Hours of Treatment (HEP-2; Ptx 10 nM): 25%
Cell Death after 24 Hours of Treatment (HEP-2; Ptx 20 nM): 40%
Cell Death after 24 Hours of Treatment (HEP-2; Ptx 50 nM): 90%
Killing of tumor cells (HEP-2; in 24 hours up to a concentration of 50 ng/ml): complete killing

Molecule: Teicoplanin
CMC [8]: 100 µM
Cell Death after 24 Hours of Treatment (HEP-2; Teico 5 μM control micelles without Ptx): 0%
Effect on cells (HEP-2; Teicoplanin by itself): no effect
Ptx in Teicoplanin micelles [9]: 2.5 mg/mL
Micelles stable ([1]; at 4° C.): 35 days
Micelles stable (Daptomycin: and biologically active) [1]: 48 hours
Loss of molecules of Teicoplanin [10]: about 25%
Half life [2]: 70 to 100 h
Suggested maximum dose ([3]; to avoid unwanted side effects or cytotoxicity): 20 mg/kg/day
Size larger than Dapto and Dapto-Ptx micelles [4]: 40%
Particle size ([4]; DLS, Example 5): 8 nm
Polydispersity index ([4]; DLS, Example 5): 0.017
Diameter of micelles [4]: 8 nm
Interaction with red blood cells (RBCs) (red blood cells (RBCs)): neither Teicoplanin nor Teico-Ptx complex interact with red blood cells
Ptx loaded (%) ([6]; 4° C.): 94%
Ptx loaded (%) ([6]; 25° C.): 96%
Ptx loaded (%) ([6]; 37° C.): 98%
Load capacity compared with Daptomycin ([6]; Dtx or Ptx): twice
Maximum load / loading capacity [6]: 10 mg/mL
Maximum load / loading capacity ([6]; listed as Teicoplanin micelles): about 10 mg/ml
Ptx in Teicoplanin micelles ([6]; Ptx concentration 1 mg/ml): 1 mg/mL
Ptx in Teicoplanin micelles ([6]; Ptx concentration 5 mg/ml): 5 mg/mL
Ptx in Teicoplanin micelles ([6]; Ptx concentration 10 mg/ml): 10 mg/mL
Ptx in Teicoplanin micelles ([6]; Ptx concentration 20 mg/ml): 2 mg/mL
Ptx load ([6]; in all conditions (4° C., 25° C. and 37° C.)): higher than 90%
